What was measured:
[1] = test system: GSPT1; assay: Western blot, degradation of substrate protein in hPBMCs; assay type: cell-based, Human
[2] = molecular target: T1, human Cereblon WT GST-tagged protein (Homo sapiens, UniProt Q96SW2); assay: CRBN-binding affinity, HTRF (CEREBLON BINDING kit); conditions: for inhibition at 0.5 µM: read-out: Inhibition Rate at 0.5 µM (%); for inhibition at 2 µM: read-out: Inhibition Rate at 2 µM (%)
T1 construct: purchased CISBIO 64BDCRBNPEH

[3] = molecular target: T2, IKZF3 (Homo sapiens, UniProt Q96SW2+Q9UKT9); assay: Western blot, degradation of substrate protein in hPBMCs; assay type: cell-based
T2 construct: effects of the compounds of the present disclosure on the expression of target proteins in cells; endogenous in cells; host or cells: human PBMCs (Milecell Biotechnologies)
T2 sequence (Q9UKT9 whole entry): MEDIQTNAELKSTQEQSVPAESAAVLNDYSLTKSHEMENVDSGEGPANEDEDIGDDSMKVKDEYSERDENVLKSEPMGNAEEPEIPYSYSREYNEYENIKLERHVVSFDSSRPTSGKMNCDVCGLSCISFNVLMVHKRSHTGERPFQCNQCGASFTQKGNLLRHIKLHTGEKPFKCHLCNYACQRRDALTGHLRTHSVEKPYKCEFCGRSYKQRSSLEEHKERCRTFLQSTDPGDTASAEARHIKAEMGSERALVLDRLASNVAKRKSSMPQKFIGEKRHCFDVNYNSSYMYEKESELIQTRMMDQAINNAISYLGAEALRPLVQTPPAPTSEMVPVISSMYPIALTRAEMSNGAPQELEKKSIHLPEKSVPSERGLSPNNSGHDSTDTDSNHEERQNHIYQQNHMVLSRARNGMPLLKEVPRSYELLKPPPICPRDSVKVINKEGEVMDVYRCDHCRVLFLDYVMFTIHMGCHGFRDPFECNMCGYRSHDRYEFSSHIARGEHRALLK
T2 sequence (Q96SW2 whole entry): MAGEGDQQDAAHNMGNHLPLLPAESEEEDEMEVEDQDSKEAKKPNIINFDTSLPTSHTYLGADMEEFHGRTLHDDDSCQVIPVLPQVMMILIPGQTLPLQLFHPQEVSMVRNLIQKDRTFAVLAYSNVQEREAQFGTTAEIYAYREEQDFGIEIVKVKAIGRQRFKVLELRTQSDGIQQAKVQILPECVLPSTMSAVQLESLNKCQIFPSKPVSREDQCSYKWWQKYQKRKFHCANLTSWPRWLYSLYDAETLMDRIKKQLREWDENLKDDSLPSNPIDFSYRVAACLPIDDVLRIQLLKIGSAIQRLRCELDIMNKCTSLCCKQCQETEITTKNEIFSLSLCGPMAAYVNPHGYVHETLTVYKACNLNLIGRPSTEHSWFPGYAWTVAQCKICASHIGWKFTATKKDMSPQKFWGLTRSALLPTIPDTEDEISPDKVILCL
T2 sequence (Q16531 whole entry partner): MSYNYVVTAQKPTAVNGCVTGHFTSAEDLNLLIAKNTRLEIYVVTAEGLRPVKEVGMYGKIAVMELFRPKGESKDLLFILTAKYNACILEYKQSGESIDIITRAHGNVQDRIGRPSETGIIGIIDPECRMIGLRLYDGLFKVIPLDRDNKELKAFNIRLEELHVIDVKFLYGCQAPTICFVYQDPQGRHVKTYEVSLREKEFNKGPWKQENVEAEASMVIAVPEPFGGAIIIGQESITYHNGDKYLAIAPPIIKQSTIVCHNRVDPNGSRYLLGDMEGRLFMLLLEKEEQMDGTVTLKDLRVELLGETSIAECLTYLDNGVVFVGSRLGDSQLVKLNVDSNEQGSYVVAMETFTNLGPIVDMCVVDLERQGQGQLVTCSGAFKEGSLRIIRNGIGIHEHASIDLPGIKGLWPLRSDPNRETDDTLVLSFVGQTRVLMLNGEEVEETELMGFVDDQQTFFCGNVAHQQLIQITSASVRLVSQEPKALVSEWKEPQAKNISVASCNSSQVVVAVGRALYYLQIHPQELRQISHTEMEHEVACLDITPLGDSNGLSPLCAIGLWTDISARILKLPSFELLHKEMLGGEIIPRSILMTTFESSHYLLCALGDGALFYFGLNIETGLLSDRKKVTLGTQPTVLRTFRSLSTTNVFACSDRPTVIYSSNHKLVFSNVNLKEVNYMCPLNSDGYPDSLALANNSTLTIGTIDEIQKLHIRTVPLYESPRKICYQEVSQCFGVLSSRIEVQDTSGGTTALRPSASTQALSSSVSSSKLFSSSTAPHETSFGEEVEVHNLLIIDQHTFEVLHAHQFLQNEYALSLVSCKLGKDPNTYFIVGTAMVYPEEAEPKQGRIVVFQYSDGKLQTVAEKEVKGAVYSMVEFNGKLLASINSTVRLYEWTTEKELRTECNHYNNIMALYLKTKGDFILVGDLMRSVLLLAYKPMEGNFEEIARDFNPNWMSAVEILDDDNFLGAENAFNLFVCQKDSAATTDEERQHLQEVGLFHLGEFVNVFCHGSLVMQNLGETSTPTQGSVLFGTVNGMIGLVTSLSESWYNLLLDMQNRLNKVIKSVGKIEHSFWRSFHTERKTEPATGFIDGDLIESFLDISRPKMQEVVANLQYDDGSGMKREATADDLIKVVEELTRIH

[4] = molecular target: T3, CK1α (Homo sapiens, UniProt P48729+Q96SW2); assay: as above; assay type: cell-based
T3 construct: effects of the compounds of the present disclosure on the expression of target proteins in cells; endogenous in cells; host or cells: human PBMCs (Milecell Biotechnologies)
T3 sequence (P48729 whole entry): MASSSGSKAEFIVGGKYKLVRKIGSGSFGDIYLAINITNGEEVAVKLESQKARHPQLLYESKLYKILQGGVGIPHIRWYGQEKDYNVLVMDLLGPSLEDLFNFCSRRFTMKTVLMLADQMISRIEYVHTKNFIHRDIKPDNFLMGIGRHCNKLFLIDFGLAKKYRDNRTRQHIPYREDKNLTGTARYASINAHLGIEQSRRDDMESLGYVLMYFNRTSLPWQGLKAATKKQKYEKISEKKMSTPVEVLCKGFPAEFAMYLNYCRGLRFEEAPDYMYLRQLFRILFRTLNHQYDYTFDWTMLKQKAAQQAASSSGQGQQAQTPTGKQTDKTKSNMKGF
T3 sequence (Q96SW2 whole entry): as the sequence (Q96SW2 whole entry) above
T3 sequence (Q16531 whole entry partner): as the sequence (Q16531 whole entry partner) above

[5] = molecular target: T4, IKZF2 (Homo sapiens, UniProt Q96SW2+Q9UKS7); assay: as above; assay type: cell-based
T4 construct: effects of the compounds of the present disclosure on the expression of target proteins in cells; endogenous in cells; host or cells: human PBMCs (Milecell Biotechnologies)
T4 sequence (Q9UKS7 whole entry): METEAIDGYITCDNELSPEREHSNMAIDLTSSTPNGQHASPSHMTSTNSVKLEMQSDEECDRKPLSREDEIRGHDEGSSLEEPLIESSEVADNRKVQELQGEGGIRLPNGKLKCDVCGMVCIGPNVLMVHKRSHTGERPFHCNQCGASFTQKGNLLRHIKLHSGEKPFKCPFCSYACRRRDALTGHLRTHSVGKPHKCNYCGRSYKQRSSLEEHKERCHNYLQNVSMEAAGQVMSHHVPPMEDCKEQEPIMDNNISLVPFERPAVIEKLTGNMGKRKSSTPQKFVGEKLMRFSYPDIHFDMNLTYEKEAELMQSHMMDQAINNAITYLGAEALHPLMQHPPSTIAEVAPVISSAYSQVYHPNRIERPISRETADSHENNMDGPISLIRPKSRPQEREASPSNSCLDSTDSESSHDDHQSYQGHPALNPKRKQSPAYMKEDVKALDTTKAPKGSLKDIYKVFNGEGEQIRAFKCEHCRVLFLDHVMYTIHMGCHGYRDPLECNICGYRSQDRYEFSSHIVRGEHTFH
T4 sequence (Q96SW2 whole entry): as the sequence (Q96SW2 whole entry) above
T4 sequence (Q16531 whole entry partner): as the sequence (Q16531 whole entry partner) above

[6] = molecular target: T5, WEE1 (Homo sapiens, UniProt P30291+Q96SW2); assay: as above; assay type: cell-based
T5 construct: effects of the compounds of the present disclosure on the expression of target proteins in cells; endogenous in cells; host or cells: human PBMCs (Milecell Biotechnologies)
T5 sequence (P30291 whole entry): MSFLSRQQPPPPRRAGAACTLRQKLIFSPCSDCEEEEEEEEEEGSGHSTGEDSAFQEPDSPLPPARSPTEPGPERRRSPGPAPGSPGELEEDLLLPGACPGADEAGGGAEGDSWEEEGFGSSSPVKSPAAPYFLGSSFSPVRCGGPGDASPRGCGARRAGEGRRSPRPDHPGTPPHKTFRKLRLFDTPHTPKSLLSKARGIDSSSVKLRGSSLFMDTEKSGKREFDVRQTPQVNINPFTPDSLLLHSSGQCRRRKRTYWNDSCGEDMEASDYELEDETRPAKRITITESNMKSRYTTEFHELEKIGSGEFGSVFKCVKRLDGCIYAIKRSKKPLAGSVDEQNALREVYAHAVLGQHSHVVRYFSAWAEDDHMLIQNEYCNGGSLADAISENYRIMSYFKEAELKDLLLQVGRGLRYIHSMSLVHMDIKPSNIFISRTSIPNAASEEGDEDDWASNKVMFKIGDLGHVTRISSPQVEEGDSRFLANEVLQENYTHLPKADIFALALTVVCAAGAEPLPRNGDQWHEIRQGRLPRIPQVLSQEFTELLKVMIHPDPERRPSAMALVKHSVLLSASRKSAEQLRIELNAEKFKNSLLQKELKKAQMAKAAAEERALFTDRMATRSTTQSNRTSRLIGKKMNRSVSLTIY
T5 sequence (Q96SW2 whole entry): as the sequence (Q96SW2 whole entry) above
T5 sequence (Q16531 whole entry partner): as the sequence (Q16531 whole entry partner) above

[7] = molecular target: T6, IKZF1 (Homo sapiens, UniProt Q13422+Q96SW2); assay: as above; assay type: cell-based
T6 construct: effects of the compounds of the present disclosure on the expression of target proteins in cells; endogenous in cells; host or cells: human PBMCs (Milecell Biotechnologies)
T6 sequence (Q13422 whole entry): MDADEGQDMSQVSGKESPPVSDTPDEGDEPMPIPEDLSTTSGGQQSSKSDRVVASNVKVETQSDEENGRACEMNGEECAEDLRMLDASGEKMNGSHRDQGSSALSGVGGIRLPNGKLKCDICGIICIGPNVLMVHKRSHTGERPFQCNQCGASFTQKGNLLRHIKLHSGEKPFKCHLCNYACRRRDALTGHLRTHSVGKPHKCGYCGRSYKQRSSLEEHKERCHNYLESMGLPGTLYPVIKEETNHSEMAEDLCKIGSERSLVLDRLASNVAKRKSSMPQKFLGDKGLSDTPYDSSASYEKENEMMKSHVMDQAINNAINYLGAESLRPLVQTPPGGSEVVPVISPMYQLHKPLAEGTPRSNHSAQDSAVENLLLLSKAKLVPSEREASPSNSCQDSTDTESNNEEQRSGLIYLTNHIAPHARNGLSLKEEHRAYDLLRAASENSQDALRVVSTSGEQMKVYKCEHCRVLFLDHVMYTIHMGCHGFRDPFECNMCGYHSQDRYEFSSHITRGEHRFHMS
T6 sequence (Q96SW2 whole entry): as the sequence (Q96SW2 whole entry) above
T6 sequence (Q16531 whole entry partner): as the sequence (Q16531 whole entry partner) above

[8] = Western blot, 24 hours of compound treatment, compounds tested at 50 nM and 500 nM (concentration for the table not stated)
[9] = 24 hours treatment, compounds at 50 nM and 500 nM (concentration behind the class not stated)

T1 sequence (Q96SW2 whole entry): as the sequence (Q96SW2 whole entry) above

Structure (SMILES)	GSPT1 substrate protein remaining % [1, 8]	inhibition at 0.5 µM [2]	inhibition at 2 µM [2]	IKZF3 substrate protein remaining % [3, 8]	CK1α substrate protein remaining % [4, 8]	IKZF2 substrate protein remaining % [5, 8]	Wee1 substrate protein remaining % [6, 8]	IKZF 1 substrate protein remaining % [7, 8]	GSPT1 substrate protein remaining % [1, 9]	IKZF3 substrate protein remaining % [3, 9]	CK1α substrate protein remaining % [4, 9]	IKZF2 substrate protein remaining % [5, 9]	Wee1 substrate protein remaining % [6, 9]	IKZF 1 substrate protein remaining % [7, 9]
O=C1CCC(N2Cc3c(CN4CCN(c5ncccc5Cl)CC4)cccc3C2=S)C(=O)N1 (stereo not drawn) [GT-08696, 3-(4-((4-(3-chloropyridin-2-yl)piperazin-1-yl)methyl)-1-thioxoisoindolin-2-yl)piperidine-2,6-dione]	B (80%< substrate protein remaining %≤ 100%)	60 to 80%	80 to 100%	B (80%< substrate protein remaining %≤ 100%)	B (80%< substrate protein remaining %≤ 100%)	B (80%< substrate protein remaining %≤ 100%)	A (0% ≤ substrate protein remaining % ≤ 80%)	B (80%< substrate protein remaining %≤ 100%)						
O=C1CCC(N2Cc3c(CN4CCN(c5ncc(C(F)(F)F)cc5Cl)CC4)cccc3C2=S)C(=O)N1 (stereo not drawn) [GT-08705, 3-(4-((4-(3-chloro-5-(trifluoromethyl)pyridin-2-yl)piperazin-1-yl)methyl)-1-thioxoisoindolin-2-yl)piperidine-2,6-dione]	B (80%< substrate protein remaining %≤ 100%)	30 to 40%	60 to 80%	B (80%< substrate protein remaining %≤ 100%)	B (80%< substrate protein remaining %≤ 100%)	B (80%< substrate protein remaining %≤ 100%)	A (0% ≤ substrate protein remaining % ≤ 80%)	B (80%< substrate protein remaining %≤ 100%)						
O=C1CCC(N2Cc3cc(CN4CCN(c5nccc(I)c5F)CC4)ccc3C2=S)C(=O)N1 (stereo not drawn) [GT-09227, 3-(5-((4-(3-fluoro-4-iodopyridin-2-yl)piperazin-1-yl)methyl)-1-thioxoisoindolin-2-yl)piperidine-2,6-dione]	A (0% ≤ substrate protein remaining % ≤ 80%)	60 to 80%	80 to 100%	B (80%< substrate protein remaining %≤ 100%)	A (0% ≤ substrate protein remaining % ≤ 80%)	B (80%< substrate protein remaining %≤ 100%)	B (80%< substrate protein remaining %≤ 100%)	B (80%< substrate protein remaining %≤ 100%)						
O=C1CCC(N2Cc3c(CN4CC=C(c5cccc6cnccc56)CC4)cccc3C2=S)C(=O)N1 (stereo not drawn) [GT-08634, 3-(4-((4-(isoquinolin-5-yl)-3,6-dihydropyridin-1(2H)-yl)methyl)-1-thioxoisoindolin-2-yl)piperidine-2,6-dione]	B (80%< substrate protein remaining %≤ 100%)	60 to 80%	80 to 100%	B (80%< substrate protein remaining %≤ 100%)	B (80%< substrate protein remaining %≤ 100%)	B (80%< substrate protein remaining %≤ 100%)	A (0% ≤ substrate protein remaining % ≤ 80%)	B (80%< substrate protein remaining %≤ 100%)						
O=C1CCC(N2Cc3c(CN4CCN(c5ccnc(Cl)c5F)CC4)cccc3C2=S)C(=O)N1 (stereo not drawn) [GT-08732, 3-(4-((4-(2-chloro-3-fluoropyridin-4-yl)piperazin-1-yl)methyl)-1-thioxoisoindolin-2-yl)piperidine-2,6-dione]	B (80%< substrate protein remaining %≤ 100%)	60 to 80%	80 to 100%	B (80%< substrate protein remaining %≤ 100%)	B (80%< substrate protein remaining %≤ 100%)	B (80%< substrate protein remaining %≤ 100%)	A (0% ≤ substrate protein remaining % ≤ 80%)	B (80%< substrate protein remaining %≤ 100%)						
O=C1CCC(N2Cc3c(CN4CCC(c5ccnc(Cl)c5Cl)CC4)cccc3C2=S)C(=O)N1 (stereo not drawn) [GT-08458, 3-(4-((4-(2,3-dichloropyridin-4-yl)piperidin-1-yl)methyl)-1-thioxoisoindolin-2-yl)piperidine-2,6-dione]	B (80%< substrate protein remaining %≤ 100%)	53 to 60%	80 to 100%	B (80%< substrate protein remaining %≤ 100%)	B (80%< substrate protein remaining %≤ 100%)	B (80%< substrate protein remaining %≤ 100%)	A (0% ≤ substrate protein remaining % ≤ 80%)	B (80%< substrate protein remaining %≤ 100%)						
Cc1sc2ncnc(N3CCCN(Cc4cccc5c4CN(C4CCC(=O)NC4=O)C5=S)CC3)c2c1C (stereo not drawn) [GT-08917, 3-(4-((4-(5,6-dimethylthieno[2,3-d]pyrimidin-4-yl)-1,4-diazepan-1-yl)methyl)-1-thioxoisoindolin-2-yl)piperidine-2,6-dione]		53 to 60%	80 to 100%						A (0% ≤ substrate protein remaining % ≤ 80%)	B (80%< substrate protein remaining %≤ 100%)	B (80%< substrate protein remaining %≤ 100%)	B (80%< substrate protein remaining %≤ 100%)	A (0% ≤ substrate protein remaining % ≤ 80%)	B (80%< substrate protein remaining %≤ 100%)
O=C1CCC(N2Cc3cc(CN4C[C@@H]5C[C@H]4CN5C(c4ccccc4)c4ccccc4)ccc3C2=S)C(=O)N1 (stereo partly drawn) [GT-07739, 3-(5-(((1S,4S)-5-benzhydryl-2,5-diazabicyclo[2.2.1]heptan-2-yl)methyl)-1-thioxoisoindolin-2-yl)piperidine-2,6-dione]	A (0% ≤ substrate protein remaining % ≤ 80%)	60 to 80%	80 to 100%	B (80%< substrate protein remaining %≤ 100%)	B (80%< substrate protein remaining %≤ 100%)	A (0% ≤ substrate protein remaining % ≤ 80%)	B (80%< substrate protein remaining %≤ 100%)	A (0% ≤ substrate protein remaining % ≤ 80%)						
O=C1CCC(N2Cc3c(CN4CCC(N5CCOc6cc(F)ccc65)CC4)cccc3C2=S)C(=O)N1 (stereo not drawn) [GT-08852, 3-(4-((4-(7-fluoro-2,3-dihydro-4H-benzo[b][1,4]oxazin-4-yl)piperidin-1-yl)methyl)-1-thioxoisoindolin-2-yl)piperidine-2,6-dione]		40 to 53%	80 to 100%						B (80%< substrate protein remaining %≤ 100%)	B (80%< substrate protein remaining %≤ 100%)	B (80%< substrate protein remaining %≤ 100%)	B (80%< substrate protein remaining %≤ 100%)	A (0% ≤ substrate protein remaining % ≤ 80%)	B (80%< substrate protein remaining %≤ 100%)
